Earlier results as cited in US20110009348A1, “CARBOHYDRATE GEL” (priority 2008, published 2011).

Test system: male cyclists
Conditions: comparison values given in text, source not stated

O=C(CO)[C@@H](O)[C@H](O)[C@H](O)CO [fructose]
peak oxidation achieved with a single carbohydrate source: ~0.4 g/min
